Laboratory results taken from ChEMBL document CHEMBL1129411, “Synthesis and dopamine transporter affinity of 2-(methoxycarbonyl)-9-methyl-3-phenyl-9-azabicyclo[3.3.1]nonane derivatives” (J Med Chem, 1996).

These compounds were tested against Sodium-dependent dopamine transporter (Rattus norvegicus, UniProt P23977) (assay: Binding affinity against dopamine transporter in rat caudate putamen tissue using [3H]WIN-35428 radioligand.).
Type: tissue-based

Sequence of Sodium-dependent dopamine transporter (P23977 whole entry): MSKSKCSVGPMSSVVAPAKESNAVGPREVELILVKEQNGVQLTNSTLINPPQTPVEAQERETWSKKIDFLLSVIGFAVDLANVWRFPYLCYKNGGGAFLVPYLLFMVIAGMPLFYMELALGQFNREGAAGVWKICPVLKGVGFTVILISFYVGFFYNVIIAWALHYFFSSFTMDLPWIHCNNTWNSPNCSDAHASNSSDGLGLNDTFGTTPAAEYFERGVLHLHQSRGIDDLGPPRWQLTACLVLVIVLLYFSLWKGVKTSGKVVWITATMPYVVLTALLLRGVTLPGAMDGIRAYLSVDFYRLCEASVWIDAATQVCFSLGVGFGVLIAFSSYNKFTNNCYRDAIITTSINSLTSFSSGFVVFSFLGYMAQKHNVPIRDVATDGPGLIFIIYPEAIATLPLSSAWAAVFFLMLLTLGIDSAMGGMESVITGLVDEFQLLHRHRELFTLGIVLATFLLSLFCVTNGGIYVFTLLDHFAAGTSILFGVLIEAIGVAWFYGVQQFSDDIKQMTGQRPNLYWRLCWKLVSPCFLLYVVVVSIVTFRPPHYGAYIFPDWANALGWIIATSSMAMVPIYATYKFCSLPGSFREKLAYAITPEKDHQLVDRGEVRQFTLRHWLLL

Structure (SMILES)	Ki [nM]
CO/C(O)=C1/C(=O)CCC2CCCC1N2C (centres undefined)	> 100000
COC(=O)[C@@H]1C2CC[C@H](C[C@@H]1c1ccccc1)N2C	310
CN1C2CCCC1C(C(=O)c1ccccc1)C(c1ccccc1)C2 (stereo in doubt; 13)	3970
CN1C2CCCC1C(C(=O)c1ccccc1)C(c1ccccc1)C2 (stereo in doubt; 14)	1910
